Reference: patent US9259022B2, “Sweetener” (Tate & Lyle Ingredients Americas LLC, priority 2013, dated 2016)

assay: Round table sweetness evaluation by test panelists (sucrose equivalent value, SEV); format: in vivo; conditions: equal sweet 10 SEV concentrations in neutral pH water, room temperature; references 4%-14% sucrose
Experimental: Round table evaluations were performed with test panelists. Equal sweet 10 SEV concentrations in neutral pH water were made for allulose, AceK and fructose, as well as a composition comprising allulose, AceK and fructose. The components of the test compositions are described in the below tables. The mixed compositions were calculated using the Beidler mixture equation for the sweeteners. The Beidler mixture equation for sweeteners is as follows: […]
The concentration of each component in the mixture in ppm is divided by SEV (c/R) and is plotted against concentration, c. The slope of the linear regression is […]. The y-intercept of the linear regression multiplied by Rmax is the half-maximal sweetness concentration, 1/K. Rmax and 1/K are the two parameters used in the Beidler equation
The equal-molar mixture was tested against reference samples for the panelists to determine SEV values. […] The test samples were served in 2 ounce soufflé cups (approximately 60 ml) coded with 3-digit codes at room temperature. A two minute wait period between samples was enforced. Water and unsalted crackers was available for the panelists to clear their palates before and during testing. EyeQuestion, software distributed by Logic8 BV of Elst, The Netherlands, was used for ballot development and recording of results. Results were collected in EyeQuestion for calculating approximate SEV level of each test sample.
The test products analyzed in this experiment are described below in Table 1.

| Structure (SMILES) | Mean sucrose equivalent value (SEV), Mean 1 | Median sucrose equivalent value (SEV), Median 1 |
| --- | --- | --- |
| CC1=CC(=O)[N-]S(=O)(=O)O1.[K+] [AceK, potassium salt of 6-methyl-1,2,3-oxathiazine-4(3H)-one 2,2-dioxide] | 9.286 | 8 |
| O=C(CO)C(O)C(O)C(O)CO (stereo not drawn) [Allulose, allulose] | 10.14 | 10 |
| O=C(CO)[C@@H](O)[C@H](O)[C@H](O)CO [Fructose, fructose] | 10.14 | 10 |
